Assays:
[1] = target: T1, jack bean urease (Canavalia ensiformis, UniProt P07374); assay: urease enzyme kinetics study; type: biochemical
[2] = target: T1, jack bean urease; assay: % urease inhibition assay and IC50; type: biochemical

T1 sequence (P07374 whole entry, looked up): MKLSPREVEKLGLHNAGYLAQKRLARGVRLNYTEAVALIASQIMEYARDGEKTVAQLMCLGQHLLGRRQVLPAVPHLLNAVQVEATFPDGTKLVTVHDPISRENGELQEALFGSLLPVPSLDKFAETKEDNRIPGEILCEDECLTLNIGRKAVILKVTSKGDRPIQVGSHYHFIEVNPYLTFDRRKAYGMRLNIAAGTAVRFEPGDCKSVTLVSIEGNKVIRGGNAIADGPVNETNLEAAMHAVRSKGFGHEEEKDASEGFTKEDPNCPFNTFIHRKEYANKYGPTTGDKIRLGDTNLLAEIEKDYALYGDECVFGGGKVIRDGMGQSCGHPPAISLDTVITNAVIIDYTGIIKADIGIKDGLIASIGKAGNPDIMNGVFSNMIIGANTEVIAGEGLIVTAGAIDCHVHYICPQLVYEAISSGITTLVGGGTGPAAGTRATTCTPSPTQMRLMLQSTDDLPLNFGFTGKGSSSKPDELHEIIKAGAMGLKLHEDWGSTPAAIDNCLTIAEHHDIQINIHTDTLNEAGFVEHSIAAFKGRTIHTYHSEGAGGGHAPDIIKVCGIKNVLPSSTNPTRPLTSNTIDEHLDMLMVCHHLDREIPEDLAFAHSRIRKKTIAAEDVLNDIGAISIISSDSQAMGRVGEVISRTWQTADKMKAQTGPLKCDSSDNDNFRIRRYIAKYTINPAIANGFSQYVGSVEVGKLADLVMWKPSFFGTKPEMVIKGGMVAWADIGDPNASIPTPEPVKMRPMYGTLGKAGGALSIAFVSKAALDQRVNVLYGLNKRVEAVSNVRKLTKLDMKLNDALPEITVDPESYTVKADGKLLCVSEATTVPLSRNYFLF

NC(N)=S [Thiourea, thiourea]
Mode of inhibition ([1]; Lineweaver–Burk plots, inhibitor 0–20 μM, urea 0.5–4.0 mM): Competitive | Ki ([1]; calculated from secondary replot (Lineweaver–Burk)): 18.2 µM | Vmax (app) ([1]; maximum velocity of enzymatic activity at 20 μM inhibitor concentration): 18.61 µM/min | % inhibition ([2]; concentration not given): 92.3% | IC50 ([2]; read-out: IC50 (μM), mean ± SEM, triplicate, mean ± SEM): 22.6 ± 0.23 µM

From publication PMC9052855 (RSC Advances, 2020)
